Where two headings read alike, the source gives them in different places.
Key:
HCV replicon GT2a = test: Cell-based HCV replicon assay, GT2a; details: Hepatitis C virus, 72 h, read-out: GT2a EC90
Protocol: (§1) To measure cell-based anti-HCV activity of compounds of the present invention, two complimentary assays were employed using various replicons. In the first assay (“Replicon Assay A”), replicon cells were seeded at 2000 cells/well in 384-well 384-well flat bottom tissue culture treated clear bottom plate (Corning 3707) in the presence of the test compound. Various concentrations of test compound, typically in 10 serial dilutions, were added to the assay mixture, with the starting concentration ranging from 333.3 nM to […]. The final concentration of DMSO was 0.5%. Fetal bovine serum was 5%, in the assay media. Cells were harvested on day 3 by removing media and washing the cells with a suitable wash buffer. The cells are lysed with the addition of 1× Qiagen lysis buffer (Cat #1062731). The replicon RNA level was measured using real time PCR (TaqMan® EZ RT-PCR, Applied Biosystems 403028) with the following primers and probes: […]
(§2) Cyclophilin RNA was used as endogenous control and was amplified in the same reaction as NS5B (multiplex PCR). The real-time RT-PCR reactions were run on ABI PRISM 7900HT Sequence Detection System using the following program: 50° C. for 2 minutes, 60° C. for 30 minutes, 95° C. for 5 minutes, 40 cycles of 94 C for 20 sec, 55 C for 1 minutes.
(§3) The amount of HCV replicon RNA per cell is quantified using a linear regression curve for a known nanogram (ng) amount of HCV replicon total RNA. This is established by plotting the Cycle Threshold values (Ct) from the Neo probe and primer set versus the log (ng) for each HCV replicon total RNA standard. The amount of HCV RNA for each replicon sample is calculated by taking the sample's Ct value, minus the line intercept, divided by the slope of the line. Similarly, the amount of Cyclophilin mRNA per cell is also quantified using a linear regression curve for a known nanogram (ng) amount of HCV replicon total RNA. Again, this is established by plotting the Cycle Threshold values (Ct) from the Cyclophilin probe and primer set versus the log (ng) for each HCV replicon total RNA standard.
(§4) In an alternate assay (“Replicon Assay B”), 1000 cells were seeded per well in a 384-well collagen coated black plate from Greiner bio-one (Cat #781946) in 5% FBS. Inhibitors of this invention were added at 24 h post-seeding, and the plates were incubated for 3 days. Cells were subsequently lysed with Qiagen lysis buffer (Cat #1062731) to extract the RNA. HCV replicon RNA level was measured by real-time PCR using the RNA-to-CT kit from Applied Biosystem (Cat #4392656) and genotype-specific primers and probes. The amplicon was located within NS5B. The sequence of the PCR primers are as follows: 5B.2F, ATGGACAGGCGCCCTGA (SEQ. ID NO. 1); 5B.2R, […] (SEQ. ID NO. 2); the probe sequence was FAM-labeled CACGCCATGCGCTGCGG (SEQ. ID NO. 3). To detect genotype 1A the primer 1A F, TGCGGAACCGGTGAGTACA and 1A R, […] were used; the probe sequence was FAM-[…].
(§5) The real-time RT-PCR reactions were run on ABI PRISM 7900HT or Viia7 Sequence Detection System using the following program: 48° C. for 30 minutes, 95 C for 10 minutes, 40 cycles of 95 C for 15 sec, 60 C for 1 minutes. The 50% effective concentration (EC50) was the drug concentration necessary to achieve an increase in the cycle threshold (CT) of 1 over the projected baseline CT. The EC90 was the drug concentration necessary to achieve an increase in CT of 3.2 over the projected baseline CT.

HCV replicon GT1a_Y93H = test: Cell-based HCV replicon assay, GT1a Y93H; details: Hepatitis C virus, 72 h, read-out: GT1a_Y93H EC90
Protocol: as §1, §2, §3, §4, §5

HCV replicon GT5 = test: Cell-based HCV replicon assay, GT5; details: Hepatitis C virus, GT5, 72 h; replicon RNA level by real-time PCR, 3 days
Protocol: as §1, §2, §3, §4, §5

HCV replicon GT2b_31M = test: Cell-based HCV replicon assay, GT2b 31M; details: Hepatitis C virus, 72 h, read-out: GT2b_31M EC90
Protocol: as §1, §2, §3, §4, §5

HCV replicon GT1b_WT = test: Cell-based HCV replicon assay, GT1b WT; details: Hepatitis C virus, 72 h, read-out: GT1b_WT EC90
Protocol: as §1, §2, §3, §4, §5

HCV replicon GT4 = test: Cell-based HCV replicon assay, GT4; details: Hepatitis C virus, GT4, 72 h; replicon RNA level by real-time PCR, 3 days
Protocol: as §1, §2, §3, §4, §5

HCV replicon GT1a_L31V = test: Cell-based HCV replicon assay, GT1a L31V; details: Hepatitis C virus, 72 h, read-out: GT1a_L31V EC90
Protocol: as §1, §2, §3, §4, §5

HCV replicon GT3a_WT = test: Cell-based HCV replicon assay, GT3a WT; details: Hepatitis C virus, 72 h; replicon RNA level by real-time PCR, 3 days
Protocol: as §1, §2, §3, §4, §5

HCV replicon GT1a_Q30R = test: Cell-based HCV replicon assay, GT1a Q30R; details: Hepatitis C virus, 72 h, read-out: GT1a_Q30R EC90
Protocol: as §1, §2, §3, §4, §5

HCV replicon GT3a_Y93H = test: Cell-based HCV replicon assay, GT3a Y93H; details: Hepatitis C virus, 72 h, read-out: GT3a_Y93H EC90
Protocol: as §1, §2, §3, §4, §5

HCV replicon GT6 = test: Cell-based HCV replicon assay, GT6; details: Hepatitis C virus, GT6, 72 h; replicon RNA level by real-time PCR, 3 days
Protocol: as §1, §2, §3, §4, §5

[1] = replicon RNA level by real-time PCR, 3 days

SMILES	EC90 (HCV replicon GT2a)	EC90 (HCV replicon GT1a_Y93H)	EC90 (HCV replicon GT5)	EC90 (HCV replicon GT2b_31M)	EC90 (HCV replicon GT1b_WT)	EC90 (HCV replicon GT4)	EC90 (HCV replicon GT1a_L31V)	EC90 (HCV replicon GT3a_WT)	EC90 (HCV replicon GT1a_Q30R)	EC90 (HCV replicon GT3a_Y93H)	EC90 (HCV replicon GT6)	EC90 (HCV replicon GT2a; [1])	EC90 (HCV replicon GT1b_WT; [1])
COC(=O)NC(C(=O)N1C[Si](C)(C)C[C@H]1c1ncc(-c2ccc3c(c2)cc2n3[C@H](c3ccc(C4CC4)s3)Oc3cc(-c4cnc([C@@H]5CCCN5C(=O)[C@@H](NC(=O)OC)C(C)C)[nH]4)cc(F)c3-2)[nH]1)C1CCC(F)(F)CC1 (some centres unmarked) [Compound 16]	5.75 pM	0.972 nM	17.3 pM	2.83 nM	1.84 pM	1.83 pM	0.0507 nM	1.68 nM	0.0285 nM	3690 nM	25.2 pM	–	–
COC(=O)NC(C(=O)N1CCC[C@H]1c1ncc(-c2ccc3c(c2)cc2n3[C@H](c3cnc(C4CC4)s3)Oc3cc(-c4cnc([C@@H]5C[Si](C)(C)CN5C(=O)[C@H](N)c5ccccc5)[nH]4)cc(F)c3-2)[nH]1)C(C)C (some centres unmarked) [Compound 10]	–	4.28 nM	13.9 pM	12 nM	–	–	0.859 nM	5.48 nM	0.387 nM	126 nM	8 pM	2.46 pM	1.42 pM
COC(=O)N[C@H](C(=O)N1CCC[C@H]1c1ncc(-c2cc(F)c3c(c2)O[C@@H](c2ccc(C4CC4)s2)n2c-3cc3cc(-c4cnc([C@@H]5C[Si](C)(C)CN5C(=O)[C@@H](NC(=O)OC)[C@@H]5CCOC(C)(C)C5)[nH]4)ccc32)[nH]1)C(C)C [Compound 15]	2.1 pM	0.185 nM	6.5 pM	0.314 nM	1.02 pM	1.36 pM	0.0075 nM	0.173 nM	0.0047 nM	442 nM	14.4 pM	–	–
COC(=O)NC(C(=O)N1C[Si](C)(C)C[C@H]1c1ncc(-c2ccc3c(c2)cc2n3[C@H](c3cnc(C4CC4)s3)Oc3cc(-c4cnc([C@@H]5CCCN5C(=O)[C@@H](NC(=O)OC)C(C)C)[nH]4)cc(F)c3-2)[nH]1)C1CCOCC1 (some centres unmarked) [Compound 2]	–	0.062 nM	4.1 pM	0.231 nM	–	–	0.003 nM	0.17 nM	0.0043 nM	168 nM	4.4 pM	–	–
COC(=O)N[C@H](C(=O)N1CCC[C@H]1c1ncc(-c2cc(F)c3c(c2)O[C@@H](c2cnc(C4CC4)s2)n2c-3cc3cc(-c4cnc([C@@H]5C[Si](C)(C)CN5C(=O)[C@@H](NC(=O)OC)C(C)C)[nH]4)ccc32)[nH]1)C(C)C [Compound 1]	2.78 pM	0.231 nM	5.6 pM	2.43 nM	–	–	0.0568 nM	1.77 nM	0.0193 nM	393 nM	5.9 pM	–	–
COC(=O)N[C@H](C(=O)N1CCC[C@H]1c1ncc(-c2cc(F)c3c(c2)O[C@@H](c2ccc(C4CC4)s2)n2c-3cc3cc(-c4cnc([C@@H]5C[Si](C)(C)CN5C(=O)[C@@H](NC(=O)OC)C(C)C)[nH]4)ccc32)[nH]1)C(C)C [Compound 13]	3.38 pM	0.561 nM	6.1 pM	0.933 nM	1.18 pM	1.5 pM	0.0756 nM	0.469 nM	0.0328 nM	614 nM	10.8 pM	–	–
CNC(C(=O)N1C[Si](C)(C)C[C@H]1c1ncc(-c2ccc3c(c2)cc2n3[C@H](c3ccc(C4CC4)s3)Oc3cc(-c4cnc([C@@H]5CCCN5C(=O)[C@@H](NC(=O)OC)C(C)C)[nH]4)cc(F)c3-2)[nH]1)c1ccccc1 (some centres unmarked) [Compound 19]	–	0.219 nM	4.8 pM	0.092 nM	–	–	0.0106 nM	0.056 nM	0.0053 nM	109 nM	4.7 pM	–	–
COC(=O)N[C@H](C(=O)N1CCC[C@H]1c1ncc(-c2cc(F)c3c(c2)O[C@@H](c2ccc(C4CC4)s2)n2c-3cc3cc(-c4cnc([C@@H]5C[Si](C)(C)CN5C(=O)[C@@H](N)c5ccccc5)[nH]4)ccc32)[nH]1)C(C)C [Compound 18]	–	1.22 nM	6.8 pM	0.062 nM	–	–	0.0681 nM	0.027 nM	0.0372 nM	206 nM	8.4 pM	–	1.11 pM
COC(=O)NC(C(=O)N1CCC[C@H]1c1ncc(-c2ccc3c(c2)cc2n3[C@H](c3cnc(C4CC4)s3)Oc3cc(-c4cnc([C@@H]5C[Si](C)(C)CN5C(=O)[C@@H](NC(=O)OC)[C@@H]5CCOC(C)(C)C5)[nH]4)cc(F)c3-2)[nH]1)C(C)C (some centres unmarked) [Compound 8]	1.18 pM	0.271 nM	7.2 pM	1.12 nM	–	1.03 pM	0.0088 nM	0.709 nM	0.0056 nM	133 nM	7.9 pM	–	–
CNC(C(=O)N1C[Si](C)(C)C[C@H]1c1ncc(-c2ccc3c(c2)cc2n3[C@H](c3cnc(C4CC4)s3)Oc3cc(-c4cnc([C@@H]5CCCN5C(=O)[C@@H](NC(=O)OC)C(C)C)[nH]4)cc(F)c3-2)[nH]1)c1ccccc1 (some centres unmarked) [Compound 5]	–	0.33 nM	8.6 pM	0.378 nM	–	–	0.0359 nM	0.257 nM	0.0155 nM	110 nM	8.8 pM	–	2.1 pM
COC(=O)N[C@H](C(=O)N1CCC[C@H]1c1ncc(-c2cc(F)c3c(c2)O[C@@H](c2cnc(C4CC4)s2)n2c-3cc3cc(-c4cnc([C@@H]5C[Si](C)(C)CN5C(=O)C(N)c5ccccc5)[nH]4)ccc32)[nH]1)C(C)C (some centres unmarked) [Compound 12]	–	0.334 nM	14.4 pM	0.061 nM	–	–	0.149 nM	0.036 nM	0.0776 nM	155 nM	86.3 pM	1.52 pM	1.41 pM
CN[C@@H](C(=O)N1C[Si](C)(C)C[C@H]1c1ncc(-c2cc(F)c3c(c2)O[C@@H](c2cnc(C4CC4)s2)n2c-3cc3cc(-c4cnc([C@@H]5CCCN5C(=O)C(NC(=O)OC)C(C)C)[nH]4)ccc32)[nH]1)c1ccccc1 (some centres unmarked) [Compound 11]	–	0.933 nM	9.8 pM	0.705 nM	–	–	0.0963 nM	0.347 nM	0.0318 nM	74 nM	6.6 pM	1 pM	1.54 pM
